In patent US11919904B2, “Sulfonylamide compounds as CDK2 inhibitors” (Incyte Corporation, priority 2019, dated 2024):

Assays:
[1] = test system: CCNE1 amplified COV318 cells; experiment: Cell cycle analysis by FACS in COV318 cells with control or p16 siRNA; assay type: cell-based, human; conditions: 100 nM, sixteen hours
Experimental: To confirm the role of p16 in CDK2-sensitivity of CCNE-amplified cells, COV318 cells were treated with control or p16-specifict siRNA.
(§1) Bulk DNA was stained with DAPI. Compound-treated and DMSO treated control cells were acquired with CytoFlex (Beckman Coulter) and were analyzed using the FlowJo software. For cell cycle analysis of cells with siRNA knockdown, 72 hours after siRNA transfection, cells exposed to 10 μM EdU for 3 hours before detection of Click-iT Alexa Fluor® 647 azide kit.

[2] = test system: Rb phosphorylated on serine 780 in CCNE1 amplified COV318 cells; experiment: CDK2 pRb (S780) HTRF cellular assay; assay type: cell-based; conditions: Homo sapiens, FIG. 10B
Experimental: CDK2 pRb ([…]) HTRF cellular assay enables the quantitative detection of Rb phosphorylated on […] in CCNE1 amplified COV318 cells. The assay comprised two antibodies: Europium cryptate labeled anti-Phospho-Rb […] antibody (donor) and d2 labeled anti-Rb antibody (acceptor). […] The final concentrations of compounds start from 3 μM. […] After 2 h of incubation at room temperature, HTRF signals were measured on the PHERAstar microplate reader (BMG Labtech), using 340 nm as excitation wavelength, a 620 nm filter for the Europium donor fluorescence, and a 665-nm filter for the acceptor fluorescence detection. HTRF signals were calculated as the HTRF ratio (ratio of fluorescence measured at 665 nm and 620 nm)×10000.

CDK2/Cyclin E1 = CDK2/Cyclin E1 (Homo sapiens (Human), UniProt P24941); experiment: CDK2/Cyclin E1 HTRF enzyme activity assay; assay type: biochemical; conditions: 1 mM ATP
Experimental: CDK2/Cyclin E1 enzyme activity assays utilize full-length human CDK2 co-expressed as N-terminal GST-tagged protein with FLAG-Cyclin E1 in a baculovirus expression system (Carna Product Number 04-165). Assays are conducted in white 384-well polystyrene plates in a final reaction volume of 8 μL. CDK2/Cyclin E1 (0.25 nM) is incubated with compounds (40 nL serially diluted in DMSO) in the presence of ATP (50 μM or 1 mM) and 50 nM ULight™-labeled eIF4E-binding protein 1 (THR37/46) peptide (PerkinElmer) in assay buffer (containing 50 mM HEPES pH 7.5, 1 mM EGTA, 10 mM MgCl2, 2 mM DTT, 0.05 mg/mL BSA, and 0.01% Tween 20) for 60 minutes at room temperature. The reactions are stopped by the addition of EDTA and Europium-labeled anti-phospho-4E-BP1 antibody (PerkinElmer), for a final concentration of 15 mM and 1.5 nM, respectively. HTRF signals are read after 1 hour at room temperature on a PHERAstar FS plate reader (BMG Labtech). Data is analyzed with IDBS XLFit and GraphPad Prism 5.0 software using a three or four parameter dose response curve to determine IC50 for each compound.

[3] = test system: Rb phosphorylation at S780 in CCNE1-non-amplified cell lines (COV504 and OV56); experiment: Western blot of Rb phosphorylation at S780 in CCNE1-non-amplified cell lines; assay type: cell-based, human; conditions: one or 15 hours after treatment, various doses
Experimental: The effect of CDK4/6-inhibition on Rb phosphorylation at S780 in CCNE1-amplified versus CCNE1-non-amplified cell lines was evaluated. […] One or 15 hours after treatment, the cells were harvested and total protein was extracted and analyzed by western blot (FIG. 8).
Whole cell extracts were prepared using RIPA buffer (Thermo Scientific, 89900) with a Halt Protease and Phosphatase Inhibitor Cocktail (Thermo Scientific, 78440). Protein concentration was quantified with a BCA Protein Assay Kit (Thermo Scientific, 23225) and 40 μg of protein lysates were loaded for SDS-PAGE using precast gradient gels (Bio-Rad, Hercules, No. 456-1094). Samples were diluted in 5×Laemmli buffer (300 mM Tris-HCl pH 6.8, 10% SDS (w/v), 5% 2-mercaptoethanol, 25% glycerol (v/v), 0.1% bromophenol blue w/v) and boiled for 5 minutes. […] of proteins were separated by 8-15% SDS-PAGE and transferred onto polyvinylidene fluoride (PVDF) membranes. Unspecific binding sites on the PVDF membranes were blocked with 5% non-fat milk in TBST (20 mM Tris-HCl, pH 7.6, 137 mM NaCl, 1% Tween-20). […] Images were captured by Luminescence/Fluorescence Imaging System Odyssey CLx Imager (LI-COR).

[4] = test system: CCNE1-amplified cell lines (COV318, OVCAR3); experiment: Cell cycle analysis by FACS in CCNE1-amplified cell lines; assay type: cell-based, human; conditions: COV318 and OVCAR3; 16 hours after treatment; compared to DMSO
Experimental: (§2) The effect of CDK4/6-inhibition in CCNE1-amplified versus CCNE1-non-amplified cell lines was evaluated.
(§3) A similar experiment was performed in a larger set of CCNE1-amplified cell lines (COV318 and OVCAR3) and CCNE1-non-amplified cell lines (COV504, OV56, and Igrov1) (FIG. 6).
as §1

[5] = test system: CCNE1-non-amplified cell lines (COV504, OV56, Igrov1); experiment: Cell cycle analysis by FACS in CCNE1-non-amplified cell lines; assay type: cell-based, human
Experimental: as §2, §3, §1

C[C@@]1(O)CCC[C@H]1n1c(=O)ccc2cnc(NC3CCN(S(C)(=O)=O)CC3)nc21 [Compound A, 8-((1R,2R)-2-hydroxy-2-methylcyclopentyl)-2-((1-(methylsulfonyl)piperidin-4-yl)amino)pyrido[2,3-d]pyrimidin-7(8H)-one]
percentage of S phase cells ([1]; control siRNA-treated cells): significantly decreased
percentage of S phase cells ([1]; p16 knocked down cells, compared to DMSO control): not significantly decreased
IC50 [2]: 37 nM

CC(C)(O)CNS(=O)(=O)c1ccc(Nc2ncc3c(n2)N([C@@H]2CCC[C@@]2(C)O)C(=O)C32CC2)cc1 [Example 10, 4-((7′-(2-hydroxy-2-methylcyclopentyl)-6′-oxo-6′,7′-dihydrospiro [cyclopropane-1,5′-pyrrolo[2,3-d]pyrimidin]-2′-yl)amino)-N-(2-hydroxy-2-methylpropyl)benzenesulfonamide]
IC50 (CDK2/Cyclin E1): ≤ 50 nM

CN(C)CCNS(=O)(=O)c1ccc(Nc2ncc3c(n2)N(c2cc(F)ccc2Cl)C(=O)C32CC2)cc1 [Example 12, 4-((7′-(2-chloro-5-fluorophenyl)-6′-oxo-6′,7′-dihydrospiro[cyclopropane-1,5′-pyrrolo[2,3-d]pyrimidin]-2′-yl)amino)-N-(2-(dimethylamino)ethyl)benzenesulfonamide]
IC50 (CDK2/Cyclin E1): ≤ 50 nM

CNS(=O)(=O)c1ccc(Nc2ncc3c(n2)N(c2cc4c(cc2Cl)CNCC4)C(=O)C32CC2)cc1 [Example 13, 4-((7′-(7-chloro-1,2,3,4-tetrahydroisoquinolin-6-yl)-6′-oxo-6′,7′-dihydrospiro[cyclopropane-1,5′-pyrrolo[2,3-d]pyrimidin]-2′-yl)amino)-N-methylbenzenesulfonamide]
IC50 (CDK2/Cyclin E1): ≤ 50 nM

CNS(=O)(=O)c1ccc(Nc2ncc3c(n2)N(c2cc(F)ccc2C)C(=O)C32CC2)cc1 [Example 14, 4-((7′-(5-fluoro-2-methylphenyl)-6′-oxo-6′,7′-dihydrospiro[cyclopropane-1,5′-pyrrolo[2,3-d]pyrimidin]-2′-yl)amino)-N-methylbenzenesulfonamide]
IC50 (CDK2/Cyclin E1): ≤ 50 nM

CNS(=O)(=O)c1ccc(Nc2ncc3c(n2)N(c2cc(F)ccc2Cl)C(=O)C32CC2)cc1 [Example 15, 4-((7′-(2-chloro-5-fluorophenyl)-6′-oxo-6′,7′-dihydrospiro[cyclopropane-1,5′-pyrrolo[2,3-d]pyrimidin]-2′-yl)amino)-N-methylbenzenesulfonamide]
IC50 (CDK2/Cyclin E1): ≤ 50 nM

CC(=O)c1c(C)c2cnc(Nc3ccc(N4CCNCC4)cn3)nc2n(C2CCCC2)c1=O [palbociclib]
Rb phosphorylation at S780 [3]: blocked Rb phosphorylation at S780
percentage of cells at the S phase [4]: not significantly different
percentage of cells at the S phase ([5]; COV504, OV56, Igrov1, 16 hours after treatment, compared to DMSO): decreased in CCNE1-non-amplified cell lines in a dose-dependent fashion
proliferation (cell cycle analysis by FACS) ([5]; COV504 cells, sixteen hours after treatment, increasing concentrations): dose-dependent inhibition of the proliferation
IC50 [2]: > 3000 nM
